{
  "source": "patent US8927532B2",
  "about": "“Therapeutic agent and diagnostic agent for mitochondrial dysfunction brain diseases” (SBI Pharmaceuticals Co., Ltd., priority 2007, dated 2015)",
  "tested_on": "middle cerebral artery-occluded model rats",
  "assay": "Fluorescence observation of brain disease site in cerebral infarction model rats",
  "format": "in vivo, rat",
  "settings": "100 mg/kg i.p., 4 hours after administration",
  "method": "After 6 hours, 12 hours, 24 hours, and 42 hours from the preparation of middle cerebral artery-occluded model rats, δ-aminolevulinic acid hydrochloride was dissolved in physiological saline and intraperitoneally administered to the individual model rats in an amount of 100 mg/kg-body weight of rat. […] Moreover, it was confirmed that the red light site was in a cerebral infarction state.",
  "data": [
    {"smiles": "Cl.NCC(=O)CCC(=O)O", "note": "[δ-aminolevulinic acid hydrochloride]", "values": [
      {"measurement": "metabolism to protoporphyrin IX in the brain", "result": "metabolized and converted into protoporphyrin IX"}
    ]}
  ]
}
